Several values for one entry are separate records, joined by “and”; a condition that tells them apart may be missing. Identical values can stand only once. Inconclusive results and toxic doses are left out. The calls were made as follows: active = survival T/C of 150% or more; inactive = T/C below 125% in these data.
System: P388 leukemia ip, CD2F1 mice, survival T/C
Assay: NCI In Vivo Anticancer Drug Screen. Data for tumor model P388 Leukemia (intraperitoneal) in CD2F1 (CDF1) mice
Details: endpoint: median survival time, higher = longer survival
Outline: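 Mice carrying the transplanted tumor received test compound or vehicle. Survival was recorded in each group, and the value is the treated-group measurement divided by that of the vehicle-treated control group.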

[1] = dose: 50.0 mg/kg/injection, schedule: Q01DX009 (ip), vehicle: saline with Tween-80
[2] = dose: 50.0 mg/kg/injection, schedule: Q01DX005 (ip), vehicle: saline with Tween-80
[3] = dose: 50.0 mg/kg/injection, schedule: Q01DX005 (ip), vehicle: Klucel (hydroxypropylcellulose) (HPC)
[4] = dose: 100.0 mg/kg/injection, schedule: Q01DX005 (ip), vehicle: Klucel (hydroxypropylcellulose) (HPC)
[5] = dose: 200.0 mg/kg/injection, schedule: Q01DX005 (ip), vehicle: Klucel (hydroxypropylcellulose) (HPC)
[6] = dose: 60.0 mg/kg/injection, schedule: Q01DX005 (ip), vehicle: saline with Tween-80
[7] = dose: 100.0 mg/kg/injection, schedule: Q01DX009 (ip), vehicle: saline with Tween-80
[8] = dose: 200.0 mg/kg/injection, schedule: Q01DX009 (ip), vehicle: saline with Tween-80
[9] = dose: 60.0 mg/kg/injection, schedule: Q01DX005 (ip), vehicle: Klucel (hydroxypropylcellulose) (HPC)
[10] = dose: 120.0 mg/kg/injection, schedule: Q01DX005 (ip), vehicle: Klucel (hydroxypropylcellulose) (HPC)
[11] = dose: 240.0 mg/kg/injection, schedule: Q01DX005 (ip), vehicle: Klucel (hydroxypropylcellulose) (HPC)

Measured: T/C

C/C=C/N=NNc1ccc(OC)cc1
inactive: dose: 100.0 mg/kg/injection, schedule: Q04DX003 (ip), vehicle: saline + Tween-80 + alcohol 105 % of control | dose: 200.0 mg/kg/injection, schedule: Q04DX003 (ip), vehicle: saline + Tween-80 + alcohol 99 % of control

Cn1c2ccc(Cl)cc2c2c3ncncc3ccc21
inactive: dose: 50.0 mg/kg/injection, schedule: Q01DX001 (ip), vehicle: Klucel (hydroxypropylcellulose) (HPC) 96 % of control | dose: 100.0 mg/kg/injection, schedule: Q01DX001 (ip), vehicle: Klucel (hydroxypropylcellulose) (HPC) 89 % of control | dose: 200.0 mg/kg/injection, schedule: Q01DX001 (ip), vehicle: Klucel (hydroxypropylcellulose) (HPC) 91 % of control

Cc1nc(C(=O)O)cc([N+](=O)[O-])c1C
inactive: dose: 25.0 mg/kg/injection, schedule: Q01DX009 (ip), vehicle: other 97 % of control | dose: 50.0 mg/kg/injection, schedule: Q01DX009 (ip), vehicle: other 97 % of control | dose: 100.0 mg/kg/injection, schedule: Q01DX009 (ip), vehicle: other 100 % of control | dose: 200.0 mg/kg/injection, schedule: Q01DX009 (ip), vehicle: other 94 % of control

N#Cc1cccc[n+]1Cc1ccc([N+](=O)[O-])cc1
inactive: dose: 12.5 mg/kg/injection, schedule: Q01DX009 (ip), vehicle: saline with Tween-80 95 % of control | dose: 25.0 mg/kg/injection, schedule: Q01DX009 (ip), vehicle: saline with Tween-80 109 % of control | [1] 118 % of control

O=c1ccc2ccc3[nH]onc3c2c1
inactive: [2] 100 % of control | dose: 100.0 mg/kg/injection, schedule: Q01DX005 (ip), vehicle: saline with Tween-80 93 % of control | dose: 200.0 mg/kg/injection, schedule: Q01DX005 (ip), vehicle: saline with Tween-80 88 % of control

N#CC(C(N)=O)C(CC(=O)c1ccccc1)c1ccccc1 (stereo not drawn)
inactive: [3] 100 % of control | [4] 102 % of control | [5] 101 % of control

COC(=O)c1cccc2cccc(C(=O)N(C)CCN(C)C)c12
inactive: [6] 97 % of control | dose: 120.0 mg/kg/injection, schedule: Q01DX005 (ip), vehicle: saline with Tween-80 95 % of control

CC(=N/N=C(N)N)/C(C)=N\Nc1ccc(Cl)cc1
inactive: dose: 25.0 mg/kg/injection, schedule: Q04DX003 (ip), vehicle: saline 101 % of control | dose: 50.0 mg/kg/injection, schedule: Q04DX003 (ip), vehicle: saline 101 % of control | dose: 100.0 mg/kg/injection, schedule: Q04DX003 (ip), vehicle: saline 108 % of control and 88 % of control

COc1ccc(C(c2cc(C(C)(C)C)c(O)c(C(C)(C)C)c2)n2ccnc2)cc1 (stereo not drawn)
inactive: dose: 50.0 mg/kg/injection, schedule: Q01DX005 (ip), vehicle: distilled water + alcohol 105 % of control | dose: 100.0 mg/kg/injection, schedule: Q01DX005 (ip), vehicle: distilled water + alcohol 103 % of control | dose: 200.0 mg/kg/injection, schedule: Q01DX005 (ip), vehicle: distilled water + alcohol 99 % of control

Cc1ccc(S(=O)(=O)N2CCCC2C(=O)NNC(N)=S)cc1 (stereo not drawn)
inactive: [3] 99 % of control | [4] 89 % of control | [5] 91 % of control

CCC1(c2cccc(C=O)c2)CCCCN(C)C1 (stereo not drawn)
inactive: dose: 12.5 mg/kg/injection, schedule: Q01DX005 (ip), vehicle: saline 99 % of control | dose: 25.0 mg/kg/injection, schedule: Q01DX005 (ip), vehicle: saline 97 % of control | dose: 50.0 mg/kg/injection, schedule: Q01DX005 (ip), vehicle: saline 97 % of control

COc1cc2c(cc1O)C(=O)CCC=C2
inactive: [1] 103 % of control | [7] 101 % of control | [8] 108 % of control

O=C(O)c1[nH]c(=O)[nH]c(=O)c1CO
inactive: dose: 6.25 mg/kg/injection, schedule: Q01DX009 (ip), vehicle: distilled water + Tween-80 99 % of control | dose: 12.5 mg/kg/injection, schedule: Q01DX009 (ip), vehicle: distilled water + Tween-80 100 % of control | dose: 25.0 mg/kg/injection, schedule: Q01DX009 (ip), vehicle: distilled water + Tween-80 103 % of control | dose: 50.0 mg/kg/injection, schedule: Q01DX009 (ip), vehicle: distilled water + Tween-80 110 % of control | dose: 100.0 mg/kg/injection, schedule: Q01DX009 (ip), vehicle: distilled water + Tween-80 100 % of control | dose: 200.0 mg/kg/injection, schedule: Q01DX009 (ip), vehicle: distilled water + Tween-80 95 % of control | dose: 400.0 mg/kg/injection, schedule: Q01DX009 (ip), vehicle: distilled water + Tween-80 104 % of control

Cc1ccnc(NS(=O)(=O)c2ccc(NC(=O)Nc3cccc(Cl)c3)cc2)n1
inactive: [3] 86 % of control | [4] 87 % of control | [5] 89 % of control

COc1ccc(Cc2nc(C)cc3cc(OC)c(OC)cc23)cc1OC
inactive: dose: 50.0 mg/kg/injection, schedule: Q01DX009 (ip), vehicle: water 111 % of control | dose: 100.0 mg/kg/injection, schedule: Q01DX009 (ip), vehicle: water 102 % of control | dose: 200.0 mg/kg/injection, schedule: Q01DX009 (ip), vehicle: water 89 % of control

C1CCC2(CC1)CSSC2
inactive: dose: 6.25 mg/kg/injection, schedule: Q04DX002 (ip), vehicle: saline with Tween-80 101 % of control | dose: 12.5 mg/kg/injection, schedule: Q04DX002 (ip), vehicle: saline with Tween-80 99 % of control

c1ccc(C2Nc3ccccc3CO2)cc1 (stereo not drawn)
inactive: [9] 101 % of control | [10] 99 % of control | [11] 99 % of control

OCC1OC(ONc2ccccc2)C(O)C(O)C1O (stereo not drawn)
inactive: [9] 94 % of control | [10] 99 % of control | [11] 100 % of control

CCCCCCCCC1(OCCCS(=O)(=O)O)COc2ccccc2OCCOCCOc2ccccc2OC1
inactive: dose: 30.0 mg/kg/injection, schedule: Q01DX005 (ip), vehicle: saline with Tween-80 96 % of control | [6] 94 % of control

O=C1CCC(n2cc(F)c(=O)[nH]c2=O)O1 (stereo not drawn)
inactive: dose: 25.0 mg/kg/injection, schedule: Q04DX003 (ip), vehicle: saline with Tween-80 105 % of control and 94 % of control | dose: 50.0 mg/kg/injection, schedule: Q04DX003 (ip), vehicle: saline with Tween-80 108 % of control and 95 % of control | dose: 100.0 mg/kg/injection, schedule: Q04DX003 (ip), vehicle: saline with Tween-80 101 % of control and 120 % of control and 95 % of control | dose: 400.0 mg/kg/injection, schedule: Q04DX003 (ip), vehicle: saline with Tween-80 103 % of control

CCCCCCCCCCCc1n(Cc2ccccc2)c2ccccc2[n+]1C
inactive: dose: 0.25 mg/kg/injection, schedule: Q01DX009 (ip), vehicle: saline sonified 104 % of control | dose: 0.5 mg/kg/injection, schedule: Q01DX009 (ip), vehicle: saline sonified 109 % of control

CC(C)CCCC(C)C1CCC2C3CC=C4CC(O)CCC4(C)C3CCC12C (stereo not drawn) (tested in a mixture with another compound)
inactive: dose: 3.12 mg/kg/injection, schedule: Q01DX009 (ip), vehicle: saline 87 % of control | dose: 6.25 mg/kg/injection, schedule: Q01DX009 (ip), vehicle: saline 92 % of control | dose: 12.5 mg/kg/injection, schedule: Q01DX009 (ip), vehicle: saline 94 % of control | dose: 25.0 mg/kg/injection, schedule: Q01DX009 (ip), vehicle: saline 94 % of control

CCOC(=O)C1(O)C(=O)ON=C1c1ccccc1 (stereo not drawn)
inactive: [3] 100 % of control | [4] 104 % of control | [5] 107 % of control

C=C1CC/C=C(\C)C(=O)C(O)C2C1CC2(C)C (stereo not drawn)
inactive: dose: 0.37 mg/kg/injection, schedule: Q01DX009 (ip), vehicle: saline + alcohol 104 % of control | dose: 0.75 mg/kg/injection, schedule: Q01DX009 (ip), vehicle: saline + alcohol 104 % of control | dose: 1.5 mg/kg/injection, schedule: Q01DX009 (ip), vehicle: saline + alcohol 106 % of control | dose: 3.0 mg/kg/injection, schedule: Q01DX009 (ip), vehicle: saline + alcohol 105 % of control | dose: 6.0 mg/kg/injection, schedule: Q01DX009 (ip), vehicle: saline + alcohol 88 % of control

O=C(c1ccccc1Cl)n1oc2ccccc2c1=O
inactive: [3] 97 % of control | [4] 110 % of control | [5] 106 % of control

CN(C)c1ccc(NC(=O)c2ccccc2O)cc1
inactive: [1] 113 % of control | [7] 104 % of control | [8] 99 % of control

CCN(CC)CCCC(Nc1c2ccc(Cl)cc2nc2ccc(OC)cc12)c1ccc(F)cc1 (stereo not drawn)
inactive: dose: 12.5 mg/kg/injection, schedule: Q01DX005 (ip), vehicle: saline with Tween-80 96 % of control | dose: 25.0 mg/kg/injection, schedule: Q01DX005 (ip), vehicle: saline with Tween-80 98 % of control | [2] 100 % of control and 107 % of control

CC12CCC(c3cn[nH]c31)C2(C)C (stereo not drawn)
inactive: [9] 100 % of control | [10] 100 % of control | [11] 100 % of control

Source: PubChem BioAssay AID330 (DTP/NCI, 2004)
